Measurements reported in patent US20230348426A1, “OXOPYRROLIDINE FPR2 AGONISTS” (Bristol-Myers Squibb Company, priority 2020, published 2023).

Experiments:
human FPR2 = human FPR2 (Homo sapiens (Human), UniProt P25090); assay: FPR2 cyclic adenosine monophosphate (cAMP) assay; type: cell-based; conditions: CHO cells overexpressing human FPR2; forskolin 5 µM; inhibition of cAMP production; read-out: hFPR2 cAMP2 EC50
Text: (§1) N-formyl peptide receptors (FPRs) are a family of chemo attractant receptors that facilitate leukocyte response during inflammation. FPRs belong to the seven-transmembrane G protein-coupled receptor superfamily and are linked to inhibitory G-proteins (Gi). Three family members (FPR1, FPR2 and FPR3) have been identified in humans and are predominantly found in myeloid cells with varied distribution and have also been reported in multiple organs and tissues. After agonist binding, the FPRs activate a multitude of physiological pathways, such as intra cellular signaling transduction, Ca^2+ mobilization and transcription. The family interacts with a diverse set of ligands that includes proteins, polypeptides and fatty acid metabolites which activate both pro-inflammatory and pro-resolution downstream responses. FPR2 and FPR1 Cyclic Adenosine Monophosphate (cAMP) Assays were used to measure the activity of the compounds in this patent.
(§2) FPR2 and FPR1 Cyclic Adenosine Monophosphate (cAMP) Assays. A mixture of forskolin (5 µM final for FPR2 or 10 µM final for FPR1) and IBMX (200 µM final) were added to 384-well Proxiplates (Perkin-Elmer) pre-dotted with test compounds in DMSO (1% final) at final concentrations in the range of 0.020 nM to 100 µM. Chinese Hamster Ovary cells (CHO) overexpressing human FPR1 or human FPR2 receptors were cultured in F-12 (Ham’s) medium supplemented with 10% qualified FBS, 250 µg/ml zeocin and 300 µg/ml hygromycin (Life Technologies). Reactions were initiated by adding 2,000 human FPR2 cells per well or 4,000 human FPR1 cells per well in Dulbecco’s PBS (with calcium and magnesium) (Life Technologies) supplemented with 0.1% BSA (Perkin-Elmer). The reaction mixtures were incubated for 30 min at room temperature. The level of intracellular cAMP was determined using the HTRF HiRange cAMP assay reagent kit (Cisbio) according to manufacturer’s instruction. Solutions of cryptate conjugated anti-cAMP and d2 flurorophore-labelled cAMP were made in a supplied lysis buffer separately. Upon completion of the reaction, the cells were lysed with equal volume of the d2-cAMP solution and anti-cAMP solution. After a 1-h room temperature incubation, time-resolved fluorescence intensity was measured using the Envision (Perkin-Elmer) at 400 nm excitation and dual emission at 590 nm and 665 nm. A calibration curve was constructed with an external cAMP standard at concentrations ranging from 1 µM to 0.1 pM by plotting the fluorescent intensity ratio from 665 nm emission to the intensity from the 590 nm emission against cAMP concentrations. The potency and activity of a compound to inhibit cAMP production was then determined by fitting to a 4-parametric logistic equation from a plot of cAMP level versus compound concentrations.

human FPR1 = human FPR1 (Homo sapiens (Human), UniProt P21462); assay: FPR1 cyclic adenosine monophosphate (cAMP) assay; type: cell-based; conditions: CHO cells overexpressing human FPR1; forskolin 10 µM; inhibition of cAMP production; read-out: hFPR1 cAMP EC50
Text: as §1
as §2, with “After a 1-h room temperature incubation, time-resolved fluorescence intensity was measured using the Envision (Perkin-Elmer) at 400 nm excitation and dual emission at 590 nm and 665 nm. A calibration curve was constructed with an external cAMP standard at concentrations ranging from 1 µM to 0.1 pM by plotting the fluorescent intensity ratio from 665 nm emission to the intensity from the 590 nm emission against cAMP concentrations.” left out

human FPR1, sequence (P21462 whole entry): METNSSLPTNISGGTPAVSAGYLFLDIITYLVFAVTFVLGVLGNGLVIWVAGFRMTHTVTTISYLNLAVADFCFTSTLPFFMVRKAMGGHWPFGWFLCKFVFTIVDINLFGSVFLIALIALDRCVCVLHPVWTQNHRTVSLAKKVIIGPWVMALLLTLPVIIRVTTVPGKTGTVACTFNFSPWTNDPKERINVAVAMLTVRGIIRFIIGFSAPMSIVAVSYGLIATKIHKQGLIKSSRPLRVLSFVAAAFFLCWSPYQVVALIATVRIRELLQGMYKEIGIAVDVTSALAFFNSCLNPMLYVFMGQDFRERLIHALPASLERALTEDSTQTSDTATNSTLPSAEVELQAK
human FPR2, sequence (P25090 whole entry): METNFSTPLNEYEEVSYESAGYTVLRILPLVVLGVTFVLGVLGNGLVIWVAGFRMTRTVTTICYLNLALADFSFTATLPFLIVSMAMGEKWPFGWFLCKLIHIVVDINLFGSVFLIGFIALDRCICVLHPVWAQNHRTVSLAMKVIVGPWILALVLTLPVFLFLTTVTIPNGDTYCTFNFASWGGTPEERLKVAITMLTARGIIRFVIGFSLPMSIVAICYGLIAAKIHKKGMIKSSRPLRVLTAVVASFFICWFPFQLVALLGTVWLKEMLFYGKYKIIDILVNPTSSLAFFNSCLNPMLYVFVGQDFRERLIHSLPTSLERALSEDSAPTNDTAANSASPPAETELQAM

Structure (SMILES) | EC50 (human FPR2) | EC50 (human FPR1)
COc1cc(F)c([C@@H]2CN(c3cccn(CC(O)C(F)(F)F)c3=O)C(=O)[C@H]2NC(=O)c2ccc(OC(F)F)cc2)c(F)c1 (single isomer, unassigned) [Example 4] | 0.0017 µM | 0.29 µM
COc1cc(F)c([C@@H]2CN(c3cccn(CC(O)C(F)(F)F)c3=O)C(=O)[C@H]2NC(=O)c2ccc(OC(F)F)cc2)c(F)c1 (single isomer, unassigned) [Example 5] | 0.0029 µM | 0.014 µM
COc1cc(F)c([C@@H]2CN(c3cccnc3C#N)C(=O)[C@H]2NC(=O)c2ccc(OC(F)F)cc2)c(F)c1 [Example 1, N-((3S,4R)-1-(2-cyanopyridin-3-yl)-4-(2,6-difluoro-4-methoxyphenyl)-2-oxopyrrolidin-3-yl)-4-(difluoromethoxy)benzamide] | 0.028 µM | 4.2 µM
COc1cc(F)c([C@@H]2CN(CC3CC3)C(=O)[C@H]2NC(=O)c2ccc(OC(F)F)cc2)c(F)c1 [Example 3, N-((3S,4R)-1-(cyclopropylmethyl)-4-(2,6-difluoro-4-methoxyphenyl)-2-oxopyrrolidin-3-yl)-4-(difluoromethoxy)benzamide] | 0.029 µM | 1.7 µM
COc1cc(F)c([C@@H]2CN(c3nc(Cl)ccc3C#N)C(=O)[C@H]2NC(=O)c2ccc(OC(F)F)cc2)c(F)c1 [Example 6] | 0.0051 µM | 0.65 µM
COc1cc(F)c([C@@H]2CN(c3ncccc3C(F)(F)F)C(=O)[C@H]2NC(=O)c2ccc(OC(F)F)cc2)c(F)c1 [Example 7] | 0.01 µM | 1.3 µM
COc1cc(F)c([C@@H]2CN(c3cc(OC)ccc3F)C(=O)[C@H]2NC(=O)c2ccc(OC(F)(F)F)cc2)c(F)c1 [Example 8] | 0.015 µM | 0.28 µM
COc1cc(F)c([C@@H]2CN(c3cccc(=O)n3C)C(=O)[C@H]2NC(=O)c2ccc(OC(F)F)cc2)c(F)c1 [Example 10] | 0.05 µM | 0.29 µM
COc1cc(F)c([C@@H]2CN(c3cccc(=O)n3C)C(=O)[C@H]2NC(=O)c2ccc(OC(F)(F)F)cc2)c(F)c1 [Example 11] | 0.031 µM | 0.086 µM
COc1cc(F)c([C@@H]2CN(c3cc(Cl)cc(C(F)(F)F)c3)C(=O)[C@H]2NC(=O)c2ccc(OC(F)F)cc2)c(F)c1 [Example 12] | 0.091 µM | > 10 µM
COc1cc(F)c([C@@H]2CN(c3cc(P(C)(C)=O)ccn3)C(=O)[C@H]2NC(=O)c2ccc(OC(F)(F)F)cc2)c(F)c1 [Example 13] | 0.045 µM | 0.085 µM
COc1cc(F)c([C@@H]2CN(c3cc(F)cc(OC(C)C)c3)C(=O)[C@H]2NC(=O)c2ccc(OC(F)(F)F)cc2)c(F)c1 [Example 14] | 0.037 µM | 0.043 µM
COc1cc(F)c([C@@H]2CN(c3ncccc3C#N)C(=O)[C@H]2NC(=O)c2ccc(OC(F)(F)F)cc2)c(F)c1 [Example 15] | 0.022 µM | 1.1 µM
COc1cc(F)c([C@@H]2CN(Cc3ccccc3P(C)(C)=O)C(=O)[C@H]2NC(=O)c2ccc(OC(F)(F)F)cc2)c(F)c1 [Example 17] | 0.036 µM | 0.069 µM
COc1cc(F)c([C@@H]2CN(Cc3ccccc3P(C)(C)=O)C(=O)[C@H]2NC(=O)c2ccc(OC(F)F)cc2)c(F)c1 [Example 18] | 0.037 µM | 0.2 µM
COc1cc(F)c([C@@H]2CN(c3ccccc3P(C)(C)=O)C(=O)[C@H]2NC(=O)c2ccc(OC(F)(F)F)cc2)c(F)c1 [Example 19] | 0.024 µM | 0.54 µM
COc1cc(F)c([C@@H]2CN(CC3CC3)C(=O)[C@H]2NC(=O)c2ccc(OC(F)(F)F)cc2)c(F)c1 [Example 20] | 0.032 µM | 0.56 µM
COc1cc(F)c([C@@H]2CN(c3cccnc3C#N)C(=O)[C@H]2NC(=O)c2ccc(OC(F)(F)F)cc2)c(F)c1 [Example 21] | 0.035 µM | 2.3 µM
COc1cc(F)c([C@@H]2CN(c3ncccc3P(C)(C)=O)C(=O)[C@H]2NC(=O)c2ccc(OC(F)(F)F)cc2)c(F)c1 [Example 22] | 0.013 µM | 3.2 µM

Structure (SMILES) | EC50 (human FPR2) | EC50 (human FPR1)
COc1ccnc(N2C[C@@H](c3c(F)cc(OC)cc3F)[C@H](NC(=O)c3ccc(OC(F)(F)F)cc3)C2=O)c1 [Example 23] | 0.028 µM | 1.5 µM
COc1cc(F)c([C@@H]2CN(c3cccc(C(F)F)n3)C(=O)[C@H]2NC(=O)c2ccc(OC(F)(F)F)cc2)c(F)c1 [Example 24] | 0.045 µM | 0.3 µM
COc1cc(F)c([C@@H]2CN(c3ncccc3P(C)(C)=O)C(=O)[C@H]2NC(=O)c2ccc(OC(F)F)cc2)c(F)c1 [Example 25] | 0.035 µM | > 10 µM
COc1cc(F)c([C@@H]2CN(c3ccc(=O)n(C)c3)C(=O)[C@H]2NC(=O)c2ccc(OC(F)(F)F)cc2)c(F)c1 [Example 26] | 0.035 µM | 0.027 µM
COc1cc(F)c([C@@H]2CN(c3ncccc3CO)C(=O)[C@H]2NC(=O)c2ccc(OC(F)(F)F)cc2)c(F)c1 [Example 27] | 0.027 µM | 0.57 µM
COc1cc(F)c([C@@H]2CN(c3ncccc3F)C(=O)[C@H]2NC(=O)c2ccc(OC(F)(F)F)cc2)c(F)c1 [Example 28] | 0.007 µM | 1.1 µM
COc1cc(F)c([C@@H]2CN(c3cc(F)cc(OC(C)C)c3)C(=O)[C@H]2NC(=O)c2ccc(OC(F)F)cc2)c(F)c1 [Example 29] | 0.051 µM | 0.11 µM
COc1cc(F)c([C@@H]2CN(c3cccnc3P(C)(C)=O)C(=O)[C@H]2NC(=O)c2ccc(OC(F)F)cc2)c(F)c1 [Example 30] | 0.01 µM | 0.75 µM
COc1cc(F)c([C@@H]2CN(c3ccccc3P(C)(C)=O)C(=O)[C@H]2NC(=O)c2ccc(OC(F)F)cc2)c(F)c1 [Example 31] | 0.01 µM | 0.15 µM
COc1ccnc(N2C[C@@H](c3c(F)cc(OC)cc3F)[C@H](NC(=O)c3ccc(OC(F)F)cc3)C2=O)c1 [Example 32] | 0.018 µM | 0.96 µM
COc1cc(F)c([C@@H]2CN(c3ncccc3F)C(=O)[C@H]2NC(=O)c2ccc(OC(F)F)cc2)c(F)c1 [Example 33] | 0.005 µM | 1.61 µM
COc1cc(F)c([C@@H]2CN(c3cccn(C)c3=O)C(=O)[C@H]2NC(=O)c2ccc(OC(F)F)cc2)c(F)c1 [Example 34] | 0.0038 µM | 0.3 µM
COc1cc(N2CCN(C)CC2)nc(N2C[C@@H](c3c(F)cc(OC)cc3F)[C@H](NC(=O)c3ccc(OC(F)F)cc3)C2=O)c1 [Example 35] | 0.0031 µM | > 10 µM
COc1cc(F)c([C@@H]2CN(c3c(C)ccn(CC(C)O)c3=O)C(=O)[C@H]2NC(=O)c2ccc(OC(F)(F)F)cc2)c(F)c1 (stereo partly drawn) [Example 400] | 0.0029 µM | –
COCC(CO)n1ccc(C)c(N2C[C@@H](c3c(F)cc(OC)cc3F)[C@H](NC(=O)c3ccc(OC(F)(F)F)cc3)C2=O)c1=O (stereo partly drawn) [Example 429] | 0.0015 µM | –
COc1ccc([C@@H]2CN(c3ccnn(CCC(F)(F)F)c3=O)C(=O)[C@H]2NC(=O)c2ccc(Cl)cc2)cc1 [Example 671] | 0.0058 µM | –
COc1cc(F)c([C@@H]2CN(c3c(C)ccn(CC(O)C4CC4)c3=O)C(=O)[C@H]2NC(=O)c2ccc(OC(F)(F)F)cc2)c(F)c1 (stereo partly drawn) [Example 683] | 0.013 µM | –
COc1cc(F)c([C@@H]2CN(c3c(C)ccn(CC(O)C4CC4)c3=O)C(=O)[C@H]2NC(=O)c2ccc(OC(F)(F)F)cc2)c(F)c1 (stereo partly drawn) [Example 686] | – | 0.0007 µM
